# Assays:
# [1] = target: T1, human BG2 (Homo sapiens, UniProt Q9Y5N1); assay: N-α-methylhistamine binding experiment on membrane fraction of COS7 cells expressing human BG2; set-up: the G protein-coupled receptor protein encoded by the isolated human BG2 cDNA, the present inventors prepared cells expressing the protein; expressed in transfected cells
# Procedure: (§1) Vectors expressing each BG2 receptor were prepared using pEF1x (Biochemical and Biophysical Research Communications, 1998, 250:68-71). Each BG2 expression vector was introduced into COS7 cells by lipofection method. Genes were introduced using Lipofectamine PLUS reagent (GIBCO-BRL) according to the attached manual.
# (§2) The cells were cultured at 37° C. for 24 hours in Dulbecco MEM medium (Asahi Techno Glass) to which fetal calf serum (Sigma) was added at a final concentration of 10%, in an incubator in which CO2 concentration was adjusted to 5%. Then, the cells were used for preparing a membrane fraction for the histamine binding experiment.
# (§3) The cells into which each BG2 receptor-expressing vector was introduced were crushed in 50 mM Tris-HCl pH 7.4 solution according to the standard method, uncrushed cells were removed by centrifuging at 1,000 g for 10 min, and supernatant was centrifuged at 100,000 g for 10 min to obtain a membrane fraction. The membrane fraction was resuspended in the 50 mM Tris-HCl pH 7.4 solution and centrifuged twice at 100,000 g for 10 min to finally obtain the membrane fraction. The membrane fraction obtained in this manner was suspended in 50 mM Tris-HCl pH 7.4 solution and used for the binding experiment.
# (§4) By using N-α-methylhistamine, a histamine analogue agonist, the binding experiment was conducted and the binding constants were determined (Table 2). […]
# [2] = target: T2, rat BG2-2 (Rattus norvegicus, UniProt Q9QYN8); assay: N-α-methylhistamine binding experiment on membrane fraction of COS7 cells expressing rat BG2-2; set-up: Vectors expressing each BG2 receptor were prepared using pEF1x; expressed in transfected cells; host or cells: COS7 cells (membrane fraction)
# Procedure: as §1, §2, §3, §4
# [3] = target: T3, rat BG2 (Rattus norvegicus, UniProt Q9QYN8); assay: N-α-methylhistamine binding experiment on membrane fraction of COS7 cells expressing rat BG2; set-up: succeeded in isolating a full-length cDNA (rat BG2 cDNA) encoding a rat G protein-coupled receptor; expressed in transfected cells; host or cells: COS7 cells (membrane fraction)
# Procedure: as §1, §2, §3, §4
# [4] = target: T1, human BG2; assay: Intracellular cAMP measurement by CRE-β-lactamase reporter (method of Zlokarmik et al.) in human BG2-expressing HEK 293 cells with forskolin; type: cell-based; set-up: the G protein-coupled receptor protein encoded by the isolated human BG2 cDNA, the present inventors prepared cells expressing the protein; expressed in transfected cells; host or cells: HEK 293 cells carrying a CRE-beta-lactamase reporter (Aurora), hygromycin-selected; settings: drug 1 μg/ml, forskolin 0.5 μM
# Procedure: This human BG2 expression vector was introduced by lipofection method into HEK 293 cells in which β-lactamase gene was ligated downstream of CRE sequence (purchased from Aurora). For introducing the gene, Lipofectamine PLUS reagent (GIBCO-BRL) was used and the experimental manipulation was performed according to the attached manual.
# Human BG2-expressing cells were selected by placing cells in a medium containing hygromycin, and cells which grew in the medium were used for a functional assay as human BG2-expressing cells.
# [5] = system: control cells expressing nothing
# Procedure: The intracellular cAMP concentration was measured by the method of Zlokarmik et al. (Science, 1998, 279:84). In the method of Zlokarmik et al., intracellular cAMP concentration was measured by introducing the gene in which β-lactamase gene was ligated downstream of the sequence that increased transcription activity of a gene downstream thereof dependently on the increase of intracellular cAMP concentration (CRE: cAMP responsible element), and by measuring fluorescence changes in florescent substrates to which an activity of β-lactamase transcribed and translated by the change of cAMP concentration in the cells was added.
# Moreover, to measure the decrease of intracellular cAMP concentration mediated by the bound G protein in seven-transmembrane receptors, an activity of β-lactamase depending on the intracellular cAMP concentration was increased by adding forskolin and the decrease of cAMP in cells was measured with the decrease of β-lactamase activity when a ligand was reacted.
# The cells in which the above reporter gene and human BG2 were expressed were washed with PBS(−) buffer (GIBCO-BRL) twice, Cell-dissociation buffer (GIBCO-BRL) was added thereto, and the cells were warmed at 37° C. in a CO2 incubator for 3 min and dissociated from a flask by gently tapping the incubation flask. […]
# [6] = target: T3, rat BG2; settings: 10 μM forskolin; various histamine concentrations; 15 min; rat BG2-expressing cells
# Procedure: (§5) HEK293-CRE-BLA cells (Aurora) were cultured using the D-MEM/F-12 (1:1) mixed medium (GIBCO BRL) containing 10% fetal calf serum and 500 μg/ml G418 at 37° C. in the presence of 5% CO2. Effectene Transfection Reagent (QIAGEN) was used for gene introduction.
# (§6) A day prior to the gene introduction, cells were spread on a 6-well plate (NUNC) at 3×10^5 cells/well and 0.4 μg each of the rat BG-2 and BG2-2 expression vectors was introduced into them using 10 μl/well Effectene Transfection Reagent according to the attached manual. The cells were cultured at 37° C. in the presence of 5% CO2 for 48 hours.
# (§7) To isolate single cells into which the target gene was introduced, the cells were detached from a Petri dish by trypsin, and spread to a 96-well plate (NUNC) at 2000 to 250 cells/well. The cells were further cultured in selection medium containing hygromycin at 37° C. in the presence of 5% CO2 for 14 days. Wells containing cells consisting of a single colony were only selected and cells were passage-cultured to prepare a stable cell line. […] As a control, rat BG2-expressing cells were prepared in the same manner.
# [7] = target: T2, rat BG2-2; settings: 10 μM forskolin; various histamine concentrations; 15 min; rat BG2-2-expressing cells
# Procedure: as §5, §6, §7
# T2 sequence (Q9QYN8 whole entry): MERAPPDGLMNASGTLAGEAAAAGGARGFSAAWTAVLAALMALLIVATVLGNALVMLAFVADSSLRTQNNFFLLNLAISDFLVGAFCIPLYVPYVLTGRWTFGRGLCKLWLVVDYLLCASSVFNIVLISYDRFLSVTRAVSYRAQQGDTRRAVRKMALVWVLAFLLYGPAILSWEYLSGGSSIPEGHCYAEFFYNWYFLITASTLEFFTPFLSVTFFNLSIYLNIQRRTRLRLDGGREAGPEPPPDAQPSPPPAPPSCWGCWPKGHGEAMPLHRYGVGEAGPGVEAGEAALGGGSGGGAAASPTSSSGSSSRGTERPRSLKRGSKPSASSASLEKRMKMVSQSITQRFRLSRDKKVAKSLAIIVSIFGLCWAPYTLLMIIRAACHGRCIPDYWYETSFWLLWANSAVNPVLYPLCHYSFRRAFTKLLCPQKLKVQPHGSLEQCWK
# T3 sequence (Q9QYN8 1-413 isoform Q9QYN8-2): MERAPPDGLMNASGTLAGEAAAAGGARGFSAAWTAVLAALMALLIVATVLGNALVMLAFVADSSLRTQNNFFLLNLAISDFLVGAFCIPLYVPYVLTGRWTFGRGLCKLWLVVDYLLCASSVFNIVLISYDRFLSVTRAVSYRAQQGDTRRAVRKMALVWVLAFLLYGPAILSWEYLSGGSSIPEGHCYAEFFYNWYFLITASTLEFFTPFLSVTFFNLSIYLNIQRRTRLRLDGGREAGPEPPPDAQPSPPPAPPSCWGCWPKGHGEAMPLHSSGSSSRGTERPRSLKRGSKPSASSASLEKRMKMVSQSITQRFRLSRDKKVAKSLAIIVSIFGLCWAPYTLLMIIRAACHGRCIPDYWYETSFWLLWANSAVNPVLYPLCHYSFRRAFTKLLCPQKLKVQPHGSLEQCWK
# T1 sequence (Q9Y5N1 1-453 isoform Q9Y5N1-2): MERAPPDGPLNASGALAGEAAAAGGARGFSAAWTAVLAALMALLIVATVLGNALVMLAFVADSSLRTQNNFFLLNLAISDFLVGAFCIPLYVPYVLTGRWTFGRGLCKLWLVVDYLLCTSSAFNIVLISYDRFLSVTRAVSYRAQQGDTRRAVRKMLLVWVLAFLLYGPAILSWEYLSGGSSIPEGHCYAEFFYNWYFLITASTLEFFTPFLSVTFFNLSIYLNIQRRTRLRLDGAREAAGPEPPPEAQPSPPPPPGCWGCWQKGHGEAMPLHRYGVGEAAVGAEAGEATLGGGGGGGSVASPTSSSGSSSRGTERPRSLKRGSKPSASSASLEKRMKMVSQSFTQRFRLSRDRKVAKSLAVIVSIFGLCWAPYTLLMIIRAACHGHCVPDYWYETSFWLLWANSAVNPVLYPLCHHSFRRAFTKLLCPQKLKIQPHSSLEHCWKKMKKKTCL
smiles,measurement,setting,value
"CNCCc1c[nH]cn1.Cl.Cl [N-α-methylhistamine, Histamine, N-alpha-methyl-dihydrochloride]",Kd,"[1]; Human BG2, COS7 membrane fraction, 30° C., 40 min, read-out: Binding Constant",548 ± 75.1 pM
same,specific binding (in words),"[1]; human BG2, nonspecific with 2 μM N-α-methylhistamine",specifically bound
same,Kd,"[2]; Rat BG2-2, COS7 membrane fraction, 30° C., 40 min, read-out: Binding Constant",582 ± 26.1 pM
same,specific binding (in words),"[2]; rat BG2-2, nonspecific with 2 μM N-α-methylhistamine",specifically bound
same,Kd,"[3]; Rat BG2, COS7 membrane fraction, 30° C., 40 min, read-out: Binding Constant",503 ± 19.8 pM
same,specific binding (in words),"[3]; rat BG2, nonspecific with 2 μM N-α-methylhistamine",specifically bound
C[N+](C)(C)CCOC(N)=O [carbachol],reduction of intracellular cAMP concentration (in words),[4],did not reduce intracellular cAMP concentration
NCCc1ccc(O)c(O)c1 [dopamine],reduction of intracellular cAMP concentration (in words),[4],did not reduce intracellular cAMP concentration
"Cl.Cl.NCCc1c[nH]cn1 [histamine, Histamine dihydrochloride]",reduction of intracellular cAMP concentration (in words),[5],not observed
same,decrease of intracellular cAMP concentration (in words),[6],"decrease of intracellular cAMP concentration, dependent on histamine concentration, was confirmed"
same,decrease of intracellular cAMP concentration (in words),[7],"decrease of intracellular cAMP concentration, dependent on histamine concentration, was confirmed"
same,reduction of intracellular cAMP concentration (in words),[4],intracellular cAMP concentration was decreased
same,ratio of EM460/EM530 relative to the control,"[4]; control = 100, absence of forskolin = 0",35%
NCCc1c[nH]c2ccc(O)cc12 [serotonine],reduction of intracellular cAMP concentration (in words),[4],did not reduce intracellular cAMP concentration

# Source: patent US6750322B2, “Guanosine triphosphate (GTP) binding protein-coupled receptor proteins” (Banyu Pharmaceutical Co., Ltd., priority 1998, dated 2004)
